Experimental data: ChEMBL document CHEMBL1128111, “Synthesis and biological activity of a series of 4-aryl substituted benz[b]azepines: Antagonists at the strychnine-insensitive glycine site” (Bioorg Med Chem Lett, 1995)
Calls of active or inactive are those of the source. The calls are words filed in the database; no cut-off is given here.

What follows are molecules tested against T1, Glutamate NMDA receptor (Rattus norvegicus) (UniProt P35439+Q00959+Q00960+Q00961+Q62645+Q8VHN2+Q9R1M7) (assay: The compound was tested in vivo for its effect on the NMDA receptor complex following administration by iv infusion in red nucleus assay).
Type: organism-based
Set-up: unit not given here

For `COc1cccnc1-c1c(O)c(=O)[nH]c2cc(Cl)ccc2c1=O`, which Activity is on record?
Its Activity is 2.8.

With `O=c1[nH]c2cc(Cl)ccc2c(O)c(-c2cccs2)c1=O` as the molecule, how does the Activity read?
Its Activity is 5.6.

Which Activity does the source give for `COc1ccc(-c2c(O)c(=O)[nH]c3cc(Cl)ccc3c2=O)cc1` here?
Its Activity is 9.9.

With `O=c1[nH]c2cc(Cl)ccc2c(O)c(-c2ccco2)c1=O` as the molecule, how does the Activity read?
Its Activity is 5.

How did the Activity turn out when `O=c1[nH]c2cc(Cl)ccc2c(O)c(-c2ccccc2)c1=O` was run?
Its Activity is 9.4.

How did the Activity turn out when `O=c1[nH]c2cc(Cl)ccc2c(O)c(-c2ccccn2)c1=O` was run?
Its Activity is 1.7.

Each molecule was assayed against T1, Glutamate NMDA receptor (Rattus norvegicus) (assay: The compound was tested in vivo for its effect on the NMDA receptor complex following administration by iv infusion in red nucleus assay; Inactive).
Type: organism-based

With `O=c1[nH]c2cc(Cl)ccc2c(O)c(-c2cccnc2)c1=O` as the molecule, how does the Activity read?
Its Activity is “inactive”.
